3 compounds from PMC7311426, “An amphipathic peptide with antibiotic activity against multidrug-resistant Gram-negative bacteria” (Nature Communications, 2020) can be followed below.

By CC50 is commonly meant the concentration at which the toxic effect on the cells reaches its halfway point.

SMILES strings stand for the structures. ≈ marks a conversion by molar mass, not a printed value. Residues, ends and D or L forms follow the SMILES beside them. Bounds are passed on as bounds.

Data set [1] deals with human erythrocytes (HRBC). In kind it is cell-based. Conditions: for Heamolysis HC10: red cells of human, 3 h.
A further data set can be described thus: in vitro. Particulars: human. The procedure: (§1) HEK-293 human embryonic kidney cells (ATCC CRL-1573), HepG2 liver hepatocellular carcinoma cells (ATCC HB-8065), and HK-2 human kidney proximal tubule cells (ATCC CRL-2190) cell lines were purchased from ATCC. Cytotoxicity of arenicin-3 variants was determined using the Alamar Blue (resazurin; Sigma-Aldrich, Cat # R7017), with 1% FBS for HK-2 and 10% FBS for HEK-293, and HepG2[40]. Cells were seeded as 2000 cells per well in black wall clear bottom 384-well plates (Corning®, Costar®, Cat # 3712). The cells were incubated for 24 h at 37 °C, 5% CO2. Then peptides were added into each cell containing well. After 24 h incubation, 5 μM resazurin were added per well and incubated at 37 °C for 2 h. Then the fluorescence intensity (FI) was read using a Polarstar® Omega plate reader with excitation/emission 560/590 and CC50 values were determined using Prism 8 following curve fitting and applying the following equation: Percentageviability = (FITEST-FINegative/FIUNTREATED-FINegative)×100.
(§2) Hemolytic activity was measured against isolated human erythrocytes from anonymously donated fresh human blood. Isolated erythrocytes were adjusted to 1 × 10^9 blood cells mL^−1 in phosphate-buffered saline (PBS, pH 7.4), added to the wells of NUNC polypropylene round-bottom 96-well plates (Sigma-Aldrich, Cat # P6866) then up to 300 μg mL^−1 of compound was added per well and incubated for 3 h at 37 °C. Following incubation, samples were centrifuged at 3000 rpm for 20 min, and the supernatants, 100 μL, were carefully collected for measurement. The degree of hemolysis in the samples was determined by measurement of the absorption of the supernatants at 540 nm using the Polarstar-Omega plate reader. 1% Triton-X100 was used as positive control for inducing 100% hemolysis. HC10 and HC50 values were determined using Prism 8 following curve fitting. The use of human blood (sourced from the Australian Red Cross Blood Service) for hemolysis assays was approved by the University of Queensland Institutional Human Research Ethics Committee, Approval Number 2014000031. All in vitro toxicity assays were performed for two independent biological replicates as an 8-point dose response of 3-fold dilution series in triplicate with the highest test concentration of 300 μg mL^−1.

Data set [2] deals with HEK-293 human embryonic kidney cells. Briefly: in vitro. The protocol:
as §1, §2

Data set [3] has as its system HepG2 liver hepatocellular carcinoma cells. Briefly: in vitro. The protocol:
as §1, §2

For data set [4], the system named is HK-2 human kidney proximal tubule cells. Kind of data set: in vitro. The procedure: as §1, §2
The next data set concerns E. coli. Briefly: microbe, parasite or virus in culture. The procedure:
(§3) Antimicrobial activity of arenicin-3 and its analogs was tested against a panel of bacterial and yeast strains by in vitro broth microdilution (BMD) assay with minimum inhibitory concentration (MIC) determination. Strains were purchased from American Type Culture Collection (ATCC) or obtained from clinical collaborators (full strain profiles provided in Supplementary Data 3). All peptides were prepared in Ringer’s acetate solution, and subsequently diluted fresh in water for each independent assay.
(§4) Assays were performed in Mueller Hinton broth (MHB; BD, Cat. No. 211443) for bacteria, and yeast extract-peptone dextrose (YPD; Sigma-Aldrich, Y1500) for yeast. The concentrations of the peptides and comparator antibiotics/antifungals in the assay wells ranged from either 128 or 64 μg mL^−1, to 0.06 or 0.03 μg mL^−1 as a 12-point dose response plated as a 2-fold dilution series across the wells of the plate in duplicate for each independent biological replicate, using a final cell density of 5 × 10^5 CFU mL^−1 and 2.5 × 10^3 CFU mL^−1 for bacteria and yeast respectively. Final assay volumes were 100 μL per well with MICs determined visually following 18-20 h incubation at 37 °C for bacteria, 24 h incubation at 35 °C for Candida albicans, and 24 h incubation at 35 °C with resazurin addition (0.006%; Sigma-Aldrich, Cat # R7017) for a further 3 h for Cryptococcus neoformans, without shaking. Additional bacterial and yeast susceptibility assays were performed in Cation-Adjusted Mueller Hinton Broth (CAMHB; BD, Cat No. 212322) and Roswell Park Memorial Institute (RPMI) 1640 culture medium (Life Technologies Australia, Cat No. 21870092), respectively, as recommended by CLSI guidelines (M07 11th ed[36] and M27 4th ed[37]). […] Agarose MICs were determined in MHB with 1% agarose (Bioline molecular grade; Cat no: BIO-41025; high purity, high gel strength). All experiments were performed a minimum of six replicates (n ≥ 6).

The subject of a further data set is P. aeruginosa. Briefly: microbe, parasite or virus in culture. The procedure:
as §3, §4

In another data set the test system is C. albicans. Kind of data set: microbe, parasite or virus in culture. Particulars: 24 h. The procedure:
as §3, §4

A further data set deals with A. baumannii. Kind of data set: microbe, parasite or virus in culture. The procedure:
as §3, §4

The test system of the next data set is K. pneumoniae. Kind of data set: microbe, parasite or virus in culture. The protocol:
as §3, §4

The test system of the next data set is S. aureus. Briefly: microbe, parasite or virus in culture. The procedure:
as §3, §4

A further data set relates to E. coli ATCC 25922. Kind of data set: microbe, parasite or virus in culture. Conditions: ATCC 25922. In kind it is cell-based, Escherichia coli. The procedure:
Assays were performed in Mueller Hinton broth (MHB; BD, Cat. No. 211443) for bacteria, and yeast extract-peptone dextrose (YPD; Sigma-Aldrich, Y1500) for yeast. The concentrations of the peptides and comparator antibiotics/antifungals in the assay wells ranged from either 128 or 64 μg mL^−1, to 0.06 or 0.03 μg mL^−1 as a 12-point dose response plated as a 2-fold dilution series across the wells of the plate in duplicate for each independent biological replicate, using a final cell density of 5 × 10^5 CFU mL^−1 and 2.5 × 10^3 CFU mL^−1 for bacteria and yeast respectively. Final assay volumes were 100 μL per well with MICs determined visually following 18-20 h incubation at 37 °C for bacteria, 24 h incubation at 35 °C for Candida albicans, and 24 h incubation at 35 °C with resazurin addition (0.006%; Sigma-Aldrich, Cat # R7017) for a further 3 h for Cryptococcus neoformans, without shaking. Additional bacterial and yeast susceptibility assays were performed in Cation-Adjusted Mueller Hinton Broth (CAMHB; BD, Cat No. 212322) and Roswell Park Memorial Institute (RPMI) 1640 culture medium (Life Technologies Australia, Cat No. 21870092), respectively, as recommended by CLSI guidelines (M07 11th ed[36] and M27 4th ed[37]). […] However, for yeast it was determined that the YPD media was more reliable and robust between repeats and therefore MICs in this media are reported. […] Agarose MICs were determined in MHB with 1% agarose (Bioline molecular grade; Cat no: BIO-41025; high purity, high gel strength). All experiments were performed a minimum of six replicates (n ≥ 6).

`CC(C)[C@@H]1NC(=O)CNC(=O)[C@H](CC(N)=O)NC(=O)[C@H](CCCNC(=N)N)NC(=O)[C@H](Cc2ccc(O)cc2)NC(=O)[C@H](C(C)C)NC(=O)[C@@H]2CSSC[C@H](NC(=O)[C@H](C)NC(=O)[C@H](CCCNC(=N)N)NC1=O)C(=O)N[C@@H](Cc1ccc(O)cc1)C(=O)N[C@@H](CCCNC(=N)N)C(=O)N[C@@H](CCCNC(=N)N)C(=O)N[C@H](C(=O)N[C@@H](CC(N)=O)C(=O)O)CSSC[C@H](NC(=O)[C@H](Cc1ccccc1)NC(=O)CN)C(=O)N[C@@H](Cc1c[nH]c3ccccc13)C(=O)N[C@@H](CCCNC(=N)N)C(=O)N[C@@H](C)C(=O)N2` [NZ17228] (HELM PEPTIDE1{G.F.C.W.R.A.C.V.Y.R.N.G.V.R.A.C.Y.R.R.C.N}$PEPTIDE1,PEPTIDE1,3:R3-20:R3|PEPTIDE1,PEPTIDE1,7:R3-16:R3$$$V2.0): the “Heamolysis HC10, Mean” value in data set [1] is greater than 300 µg/mL. Further, in data set [1], the “Heamolysis HC10” value is greater than 300 µg/mL. Moreover, the CC50 at 24 h in “in vitro” (HEK-293 cells) was greater than 300 µg/mL; in “in vitro” (HK-2 cells) it was greater than 250 µg/mL; in the data set “in vitro” (HepG2 cells), greater than 300 µg/mL. Also, in [2], the “CC50 HEK293” value is greater than 300 µg/mL. Also, the “CC50 HEK293, Mean” value in data set [2] was greater than 300 µg/mL. The “CC50 HepG2” value in [3] was greater than 300 µg/mL. Moreover, in data set [3], the “CC50 HepG2, Mean” value was greater than 300 µg/mL. In addition, the “CC50 HK2” value in data set [4] is greater than 255 µg/mL. For the same compound, in data set [4], the “CC50 HK2, Mean” value is greater than 250 µg/mL. The “BMD MIC” value in the data set with E. coli was found to be 0.125 µg/mL; in the data set with P. aeruginosa it was 0.5 µg/mL; in the data set on C. albicans, 64 µg/mL; in the data set with A. baumannii, 1 µg/mL; in the data set on K. pneumoniae, 0.25 µg/mL; in the data set on S. aureus, 64 µg/mL. Besides, the “MIC, MHB” value in the data set on E. coli ATCC 25922 worked out at 0.125 µg/mL (≈ 0.049 µM).

Take `CC(C)C[C@@H]1NC(=O)CNC(=O)[C@H](CC(N)=O)NC(=O)[C@H](CCCNC(=N)N)NC(=O)[C@H](CCCCN)NC(=O)[C@H](C)NC(=O)[C@@H]2CSSC[C@H](NC(=O)[C@H](C(C)C)NC(=O)[C@H](CCCNC(=N)N)NC1=O)C(=O)N[C@@H](Cc1ccc(O)cc1)C(=O)N[C@@H](CCCNC(=N)N)C(=O)N[C@@H](CCCNC(=N)N)C(=O)N[C@H](C(=O)N[C@@H](CC(N)=O)C(=O)O)CSSC[C@H](NC(=O)[C@H](Cc1ccccc1)NC(=O)CN)C(=O)N[C@@H](Cc1c[nH]c3ccccc13)C(=O)N[C@@H](Cc1ccc(O)cc1)C(=O)N[C@@H](C)C(=O)N2` [NZ17126] (HELM PEPTIDE1{G.F.C.W.Y.A.C.A.K.R.N.G.L.R.V.C.Y.R.R.C.N}$PEPTIDE1,PEPTIDE1,3:R3-20:R3|PEPTIDE1,PEPTIDE1,7:R3-16:R3$$$V2.0): in data set [1], the “Heamolysis HC10, Mean” value came out at 232 µg/mL. The CC50 at 24 h in “in vitro” (HEK-293 cells) was greater than 300 µg/mL; in the data set “in vitro” (HK-2 cells) it was greater than 250 µg/mL; in the data set “in vitro” (HepG2 cells) it was greater than 300 µg/mL. The “CC50 HEK293” value in data set [2] was greater than 300 µg/mL. Moreover, in [2], the “CC50 HEK293, Mean” value was greater than 300 µg/mL. For the same compound, the “CC50 HepG2” value in data set [3] was greater than 300 µg/mL. Also, the “CC50 HepG2, Mean” value in data set [3] was greater than 300 µg/mL. For the same compound, the “CC50 HK2” value in [4] is greater than 254 µg/mL. For the same compound, in [4], the “CC50 HK2, Mean” value was greater than 250 µg/mL. Also, the “BMD MIC” value was 0.125 µg/mL with E. coli; 0.25 µg/mL in the data set with P. aeruginosa; greater than 64 µg/mL in the data set on C. albicans; 1 µg/mL in the data set on A. baumannii; 0.25 µg/mL with K. pneumoniae; 32 µg/mL in the data set on S. aureus.

Consider `CC(C)[C@@H]1NC(=O)CNC(=O)[C@H](CC(N)=O)NC(=O)[C@H](CCCNC(=N)N)NC(=O)[C@H](Cc2ccc(O)cc2)NC(=O)[C@H](C(C)C)NC(=O)[C@@H]2CSSC[C@H](NC(=O)[C@H](C(C)C)NC(=O)[C@H](CCCNC(=N)N)NC1=O)C(=O)N[C@@H](Cc1ccc(O)cc1)C(=O)N[C@@H](CCCNC(=N)N)C(=O)N[C@@H](CCCNC(=N)N)C(=O)N[C@H](C(=O)N[C@@H](CC(N)=O)C(=O)O)CSSC[C@H](NC(=O)[C@H](Cc1ccccc1)NC(=O)CN)C(=O)N[C@@H](Cc1c[nH]c3ccccc13)C(=O)N[C@@H](CCCNC(=N)N)C(=O)N[C@@H](C)C(=O)N2` [NZ17230] (HELM PEPTIDE1{G.F.C.W.R.A.C.V.Y.R.N.G.V.R.V.C.Y.R.R.C.N}$PEPTIDE1,PEPTIDE1,3:R3-20:R3|PEPTIDE1,PEPTIDE1,7:R3-16:R3$$$V2.0), for which the “Heamolysis HC10, Mean” value in [1] was greater than 300 µg/mL. The “Heamolysis HC10” value in data set [1] is greater than 300 µg/mL. For the same compound, the results for the cytotoxic concentration (CC50) at 24 h in “in vitro” (HEK-293 cells), in “in vitro” (HK-2 cells) and in “in vitro” (HepG2 cells) were 223 µg/mL (≈ 86.5 µM), greater than 250 µg/mL and greater than 300 µg/mL, respectively. Further, the “CC50 HEK293, Mean” value in data set [2] turned out to be 223 µg/mL (≈ 86.5 µM). Moreover, the “CC50 HepG2” value in [3] was greater than 300 µg/mL. Besides, the “CC50 HepG2, Mean” value in data set [3] is greater than 300 µg/mL. The “CC50 HK2” value in data set [4] was greater than 258 µg/mL. For the same compound, the “CC50 HK2, Mean” value in [4] was greater than 250 µg/mL. Further, the “BMD MIC” value worked out at 0.25 µg/mL in the data set with P. aeruginosa; 64 µg/mL with C. albicans; 0.5 µg/mL in the data set with A. baumannii; 0.25 µg/mL with K. pneumoniae; 64 µg/mL with S. aureus. For the same compound, in the data set with E. coli ATCC 25922, the “MIC, MHB” value stood at 0.25 µg/mL (≈ 0.097 µM).
